row,melting point [°C],Structure (SMILES)
1,85 to 87,CC(C)(C)OC(=O)Cn1c(C(=O)c2ccccc2)ccc1-c1ccccc1
2,77 to 81,O=C(O)CCSc1ccc(CNC(=O)C2Cc3ccccc3N2S(=O)(=O)c2ccc(-c3cccc(C(F)(F)F)c3)cc2)cc1 (centres undefined)
3,153 to 154,O=C(N[C@H](Cc1ccc(C(F)(F)F)o1)[C@@H](O)c1ccc(F)cc1)c1ccc(F)c2ccccc12 (racemic)
4,119 to 120,CN1CCN(c2ccc(CCCC(=O)N3CCC(c4ccc(Cl)cc4)CC3)cc2)CC1
5,90 to 93,CCc1noc(NS(=O)(=O)c2ccccc2)c1Br
6,76 to 80,Cn1ccnc1C1(CCCCc2ccc(N3C(=O)c4ccccc4C3=O)cc2)c2ccccc2-c2ccccc21
7,103 to 104,O=C(CCO)Nc1cccc(S)c1
8,98 to 99,CC(C)(O)[C@H]1C[C@@H](C(=O)O)C1(C)C
9,150 to 152,O=C(O)COc1ccc(SCc2ccccc2OCc2ccc(C(F)(F)F)cc2)c2c1CCC2
10,182,O=[N+]([O-])c1ccc2c(c1)CN1C(=S)SC[C@@H]1C2
11,134 to 138,Cc1ccccc1-c1nc2ccc(O)cc2o1
12,115 to 116,Cc1c(Br)c2c(c(C)c1NC(=O)OC(C)(C)C)CC(C)O2 (centres undefined)
13,123 to 124,O=C(O)CCCCCCCCn1c(-c2ccccc2)c(-c2ccccc2)n(-c2ccccc2)c1=O
14,55 to 56,CCCCCCCCCCCCS(=O)(=O)CCOc1ccc(CCC(=O)C(F)(F)F)cc1
15,103 to 105,CCCCNc1c(N)c(S)nc(C)c1C(=O)OCC
16,64 to 66,O=C(N[C@@H](Cc1ccccc1)C[C@H](O)[C@H](Cc1ccccc1)NC(=O)OCc1cscn1)OCc1cscn1
17,118 to 119,COCCOc1ccc(/C=C/C(=O)O)c(OCC2CC2)c1
18,41 to 44,COC(=O)NCc1cccc(Br)c1
19,132 to 133,COc1ccc(-c2cc(COc3cccc4cc(NS(=O)(=O)C(F)(F)F)ccc34)ccc2F)cc1
20,148,Cc1oc(Cc2cccc(Br)c2)c(C(=O)c2cc(C(C)C)c(OS(=O)(=O)c3ccc(C(=O)O)c(O)c3)c(C(C)C)c2)c1C

row,melting point [°C],Structure (SMILES)
1,104 to 106,COC(=O)c1cc(C)c(-n2c(C)ccc2C)c(C)c1
2,77 to 93,COc1cc2c(cc1Nc1ncc(Cl)c(Nc3ccccc3OCC#N)n1)CCN(CC(=O)N(C)C)CC2
3,135 to 136,CCOC(=O)c1cc2c(nc1COc1ccc(C(=O)O)cc1)CCCCC2
4,168 to 169,CC(C)(C)c1ncc([C@H]2[C@H](C(=O)O)C2(C)C)cn1 (relative stereo)
5,113 to 114,COC(=O)Cc1ccccc1N(Cc1ccc(C)cc1)c1c(Cl)cccc1Cl
6,215 to 216,O=C(Nc1cccnn1)N1CCN(c2nc(-c3cccc(F)c3F)cs2)CC1
7,105,O=S(=O)(c1ccccc1)c1ncc(F)cn1
8,161 to 163,CC(O)(C(=O)O)c1ccc(-c2ccccc2)c(F)c1 (centres undefined)
9,172 to 174,CCCc1c(OCC(O)COc2cccc(NC(=O)C(=O)OCC)c2C#N)ccc(C(C)=O)c1O (centres undefined)
10,137 to 139,O=C1N(Cc2nnc(C(F)(F)F)o2)c2ccccc2C12COc1cc3c(cc12)OCCO3 (centres undefined)
11,155 to 170,COc1ccccc1N1CCN(CCCCNc2cc(Cl)nnc2Cl)CC1
12,> 300,CCOC(=O)c1cc(=O)n(Cc2ccc(S(=O)(=O)O)cc2S(=O)(=O)O)[nH]1
13,176,CC(C)(C)CC1NC(C(=O)NC2CCC(O)CC2)C(c2cccc(Cl)c2F)C12C(=O)Nc1cc(Cl)ccc12 (centres undefined)
14,90.1,COC1(OC)CCN(Cc2ccccc2)CC1O (centres undefined)
15,110 to 111,O=C(CCCCCl)c1cc2c3c(c1)CCN3C(=O)CC2
16,128 to 130,CC[C@H](C1CC1)n1cc(Cl)nc(N2CCc3cc(OC)c(F)c(Cl)c32)c1=O
17,194 to 195,COc1cc(S(=O)(=O)Nc2ccccc2)c(OC)cc1NC(=O)[C@@](C)(O)C(F)(F)F
18,92,CC(C)OC(=O)C1CCCn2c(C(=O)c3ccc(F)cc3)ccc21 (centres undefined)
19,120,CC(=O)OC1CSC(Oc2cccnc2N=CN(C)C)C(OC(C)=O)C1OC(C)=O (centres undefined)

# Second part, the compound before the results:
row,Structure (SMILES),melting point [°C]
1,COc1ccc(C2=NN(Cc3ccc(C(=O)O)cc3)C(=O)[C@H]3CC=CC[C@@H]23)cc1OC (relative stereo),192 to 193
2,CCCCOc1c(CNC(=O)OC(C)(C)C)n(CC(C)C)c(=O)c2ccc(-c3nc(C(N)=O)cs3)cc12,195 to 196
3,C=CCc1cc(-c2cc(CC)cc(CC=C)c2O)ccc1O,47 to 48
4,O=c1c2cc(Cl)ccc2nc2n1CCN2Cc1ccccc1Cl,173 to 174
5,CN(C)C(=O)Oc1ccc(Cl)c2c1C(=O)c1ccccc1C2=O,182 to 184
6,O=C(O)c1ccc2c(c1F)OC(c1ccccc1)(c1ccccc1)O2,189 to 191
7,Cc1oc(-c2ccccc2)nc1CCOS(C)(=O)=O,88.2 to 89
8,CCOC(=O)COc1c(F)cc(S(=O)(=O)CCNS(=O)(=O)c2ccc(Cl)cc2)cc1F,166 to 167
9,Cc1nc2cnccc2n1-c1ccc(CCO)cc1,196 to 198
10,CC(C)c1cccc(C(C)C)c1NC(=O)CS(=O)(=O)CCCl,166 to 168
11,Clc1nc(-c2ccccc2)no1,40 to 42
12,O=C(c1ccccc1SSc1ccccc1C(=O)N1CCOCC1)N1CCOCC1,103 to 110
13,Cn1nc(OC(c2ccccc2)c2ccccc2)c(=O)nc1Cl,182 to 184
14,Brc1cncc2cccnc12,79 to 81
15,COC(=O)c1nc(CI)n(-c2ccc(Cl)cc2C(=O)c2ccccc2Cl)n1,125 to 128
16,OC(Cc1ccncc1)C(Cl)(Cl)Cl (centres undefined),166 to 168
17,COc1cc(Nc2nc3cccc(-c4ccc(C(=O)N(C)C)cc4)c3o2)cc(OC)c1OC,> 280
18,COc1ccc(NC(=S)NC(NC(=O)c2ccc(C)cc2)C(F)(F)F)cc1 (centres undefined),193 to 194
19,CCCCCCC(=O)NCc1cccc2c1C(=O)N(C1CCC(=O)NC1=O)C2=O (centres undefined),130 to 132
20,CCCCCCCCCCCCCCCCOC[C@H]1CCO[C@H](c2ccccc2)O1,51 to 54

row,Structure (SMILES),melting point [°C]
1,CCCCCCNC(=O)Nc1ccccc1C(=O)NC1CCN(C(c2ccccc2)c2ccccc2)CC1,192 to 194
2,O=C(NC(C(=O)O)C(=O)O)OCc1ccccc1,144 to 145
3,Cc1cccc2ncc(C(=O)N3CCCC3)c(=O)n12,132 to 134
4,O=C1CC2CS(=O)(=O)c3ccccc3C2=NN1c1ccc(Cl)cc1 (centres undefined),168 to 170
5,CC(Oc1ccc(Oc2ccc(Cl)cc2)cc1)C(=O)N1CCCO1 (centres undefined),98 to 100
6,CCCc1ccc(-n2cnc(-c3ccc(C#N)cc3)c2)cc1,133
7,CC(C)CCSc1cc(C(=O)O)cc(S(=O)(=O)Cl)c1Oc1ccccc1,168 to 169
8,O=C1N[C@H](Cc2ccccc2C(F)(F)F)[C@H](c2ccc(F)cc2)O1 (racemic),138 to 140
9,O=C(NCCO)c1cccc(-c2ccc3c(c2)C(Oc2ccc(Cl)cc2Cl)CC3)c1 (centres undefined),155 to 156
10,C1=CC2=NCCC3CCOC23C=C1 (centres undefined),170 to 171
11,Cc1sccc1C1=C(c2ccsc2C)C(F)(F)C(F)(F)C1(F)F,73.6
12,CC(O)(c1ccc(Oc2ccccc2)cc1)C1SCSCS1 (centres undefined),70 to 71
13,COc1ccc(C(=O)C(CC(=O)N[C@@H](Cc2ccccc2)C(=O)O)SC(C)=O)cc1F (some centres undefined),140 to 146
14,CCC(=O)NC[C@@H]1C[C@H]1c1c(I)ccc2c1CCO2 (relative stereo),148 to 149
15,N#Cc1ccc2c(c1)CC(Br)C2=O (centres undefined),115 to 118
16,CCCc1nc2c(N)nc3cc(-c4ccc(NC(C)=O)cc4)ccc3c2s1,252 to 255
17,CC(C)CC1(SCCCN=[N+]=[N-])c2c([nH]c(=O)n(C)c2=O)SC1Cc1cccc2ccccc12 (centres undefined),94 to 96
18,COC(=O)CCC#Cc1nc(Cl)ccc1N,96 to 100
19,COC(=O)c1cc(Br)c(C#N)s1,102 to 103
20,CCOC(=O)c1c(O)c2cc(C)ccc2n(Cc2ccccc2)c1=O,113

row,Structure (SMILES),melting point [°C]
1,COc1ccc(N(C(=O)CN2C(=O)C(C)(Cc3n[nH]c4ccccc34)C(=O)N(c3cccnc3)c3ccccc32)C(C)C)cc1 (centres undefined),161 to 165
2,OCc1c(CO)c(-c2ccc(Cl)cc2)n2c1Cc1ccccc1C2,170 to 171
3,NC(CCN1CCC(O)(Cc2ccccc2)CC1)C(=O)c1ccccc1 (centres undefined),123 to 124
4,CC(C)n1c(=O)c(C(=O)NCC2CCN(CC3(O)CCOCC3)CC2)cc2c(Cl)cccc21,227
5,CC(CO)CCCC(C)C1CCC2C3CC=C4CCCC(O)C4(C)C3CCC12C (centres undefined),158 to 160
6,CCOC(=O)CC1CCN(C(=O)c2ccccc2)CC1,47 to 48
7,Oc1cccnc1Oc1cccc(Br)c1,107 to 108
8,CC(C)(C)OC(=O)NCc1ccc(OCCC2Oc3ccccc3N(Cc3ccccc3Cl)C2=O)cc1 (centres undefined),121 to 123
9,O=c1oc(-c2ccc(Cl)c(Cl)c2)cc(O)c1SCc1ccccc1,185 to 186
10,Cc1oc(-c2ccccc2)nc1C(N)=O,154 to 157
11,CCc1nc2cc(Cl)c(Cl)cc2n1C1CC(CO)C(O)C1O (centres undefined),191 to 193
12,CCOC(=O)CCCN(C(=O)c1ccc(F)cc1)c1ccccc1-c1ccccc1,83 to 84
13,CS(=O)(=O)c1ccc(Oc2cc(OC3CCOCC3)c3[nH]c(C4=NCC(CCO)S4)cc3c2)nc1 (centres undefined),165 to 166
14,O=C1Cc2cc(NC(=O)C(=O)N3CCC(Cc4cccc(F)c4)CC3)ccc2N1,182 to 184
15,CCN(CC)CCNC(=O)c1cc(Cl)c(N)cc1OC1CCCCC1=O (centres undefined),96 to 99
16,Cc1c2c(c(Cl)n1C)NC(=O)CN=C2c1ccccc1,195
17,Cc1ccc(C(=O)N[C@H]2CC[C@H](O)CC2)c(Nc2ccc3[nH]ncc3c2)n1,> 280
18,CCCC1=NC(=NOC(=O)NC)SC1(C)CC (centres undefined),124 to 126
19,CCCCCCCCCCCCCCCCCCOc1cc(C(=O)OC)cc(C(=O)OC)c1,54 to 55
20,CCOC(=O)N(C)S(=O)(=O)c1cc2c(c(Cl)c1Cl)OC(C(=O)O)C2 (centres undefined),199 to 201

# Source: a melting point compilation (Tetko et al.; mined from patent text by program, amines drawn as free bases though some values may be those of a salt)
